# Assay results reported in US20240317721A1, “PYRAZOLYL DERIVATIVES AS INHIBITORS OF THE KRAS MUTANT PROTEIN” (NOVARTIS AG, priority 2021, published 2024).
# Target: KRasG12C (M1-K169, biotinylated on the N-terminus) (Homo sapiens (Human), UniProt P01116, G12C)
# Assay: Covalent competition assay: scintillation proximity assay (SPA) quantifying covalent modification of KRASG12C
# Type: binding
# Conditions: competition with radiolabeled covalent probe (Compound B/Compound A), 2 hours incubation, 10 nM KRasG12C
# Method: Cells were harvested by centrifugation and frozen at −80° C. until further processing. […] The cells were lysed by 4 passages through an Avestin Emulsiflex at about 20000 psi and insoluble debris removed by centrifugation and filtered through a 0.45 µm Durapore membrane (Millipore). […] Eluted protein fractions were analyzed by Novex NuPage 4-12% PAGE. […] The protein in the flow through was subjected to a final polishing step on a HiLoad 16/60 Superdex 200 prep grade size-exclusion column pre-equilibrated with SEC-buffer (20 mM HEPES pH 7.4, 150 mM NaCl, 5 mM MgCl2, 1 µM GDP). Positive fractions were determined by PAGE (Novex NuPage 4-12% BisTris) analysis.
# A scintillation proximity assay (SPA) was used to determine the potency of the compounds.
# This assay measures the ability of the test compound to compete with the radiolabeled covalent probe for binding to and covalently modify KRASG12C.
# (see above for synthesis of Compound A and Compound B). A serial dilution of the compounds to be tested is mixed with a fixed concentration of the radiolabeled covalent probe before incubation with KRASG12C:GDP as described below. KRASG12C can either be bound by the radiolabeled covalent probe (Compound B), resulting in light being emitted from the beads, or bound by covalent test compound preventing signal generation.
# A 1/20 isotopic dilution of labeled (Compound B) and non-labeled covalent (Compound A) probe was prepared and added to all wells on the plate. The reaction was started by addition of KRasG12C (M1-K169, biotinylated on the N-terminus) to the compounds and incubated for 2 hours with continuous agitation allowing for full modification of KRasG12C with probe or test compounds. Final concentrations in an assay volume of 40 μL were 10 nM KRasG12C, 25 nM radio-ligand and 475 nM unlabelled ligand. The assay buffer contained 20 mM Tris-HCl pH 7.5 (Invitrogen), 150 mM NaCl (Sigma Aldrich), 0.1 mM MgCl2 (Sigma Aldrich), and 0.01% Tween-20 (Sigma Aldrich). Following addition of 50 μL of a 400 μg/mL suspension of streptavidin-coated YSi beads (Perkin Elmer), plates were incubated for a further 30 min with continuous agitation before reading the plates on a scintillation counter (Topcount NXT 384 (Packard).
# Evaluation was carried out using assay data analysis software (such as the standard Novartis in-house Helios software application, Novartis Institutes for BioMedical Research, unpublished) using the methods described in Formenko et al., Robust Regression for high-throughput screening, Computer Methods and Programs in Biomedicine, 2006, 82, 31-37. Following normalization of activity values for the wells to % inhibition (% inhibition=[(high control−sample)/(high control−low control)]×100), IC50 fitting was carried out from the duplicate determinations present on each plate according to Formenko et al., 2006.
# Evaluation can also be carried out using commercially available software which is designed to derive IC50 values using 4-parameter fits (e.g. GraphPad Prism, XL fit).
row,Compound,IC50
1,"C=CC(=O)N1CC2(CC(n3nc(N4CC[C@@H](CN(C)CC(=O)N5CCCC5)CC4(C)C)c(-c4c(Cl)c(Cl)cc5[nH]ncc45)c3C)C2)C1 (single isomer, unassigned) [Example 252a]",> 5000 nM
2,"C=CC(=O)N1CC2(CC(n3nc(N4CCN(C[C@@H]5COCCO5)C[C@]4(C)CC)c(-c4c(Cl)c(Cl)cc5[nH]ncc45)c3C)C2)C1 (single isomer, unassigned) [Example 89a]",3400 nM
3,"C=CC(=O)N1CC2(CC(n3nc(N4CCN(C(C)=O)CC4)c(-c4c(Cl)ccc5[nH]ncc45)c3C)C2)C1C (single isomer, unassigned) [Example 196b, 1-(6-(3-(4-acetylpiperazin-1-yl)-4-(5-chloro-1H-indazol-4-yl)-5-methyl-1H-pyrazol-1-yl)-1-methyl-2-azaspiro[3.3]heptan-2-yl)prop-2-en-1-one]",9000 nM
4,"C=CC(=O)N1C[C@]2(C[C@H](n3nc(N4CC[C@@H](CN5CCN(C6COC6)CC5)CC4(C)C)c(-c4c(Cl)c(Cl)cc5[nH]ncc45)c3C)C2)[C@H]1C (single isomer, unassigned) [Example 201a]",4300 nM
5,"C=CC(=O)N1CC2(CC(n3nc(N4CCN(C(=O)OCCOC)CC45CCC5)c(-c4c(Cl)c(C)cc5[nH]ncc45)c3C)C2)C1 (single isomer, unassigned) [Example 122a, 2-methoxyethyl 5-(1-(2-acryloyl-2-azaspiro[3.3]heptan-6-yl)-4-(5-chloro-6-methyl-1H-indazol-4-yl)-5-methyl-1H-pyrazol-3-yl)-5,8-diazaspiro[3.5]nonane-8-carboxylate]",> 5000 nM
6,"C=CC(=O)N1CC2(CC(n3nc(N4CCc5c(cnn5C)C4)c(-c4c(Cl)c(C)cc5[nH]ncc45)c3C)C2)C1 (single isomer, unassigned) [Example 11a, 1-(6-(4-(5-chloro-6-methyl-1H-indazol-4-yl)-5-methyl-3-(1-methyl-1,4,6,7-tetrahydro-5H-pyrazolo[4,3-c]pyridin-5-yl)-1H-pyrazol-1-yl)-2-azaspiro[3.3]heptan-2-yl)prop-2-en-1-one]",> 50000 nM
7,"C=CC(=O)N1CC2(CC(n3nc(N4CC[C@@H](CN5CCN(C6COC6)C6COCC65)CC4(C)C)c(-c4c(Cl)c(Cl)cc5[nH]ncc45)c3C)C2)C1 (single isomer, unassigned) [Example 280a, 1-(6-(4-(5,6-dichloro-1H-indazol-4-yl)-3-((R)-2,2-dimethyl-4-(((4aS*,7aR*)-4-(oxetan-3-yl)hexahydrofuro[3,4-b]pyrazin-1(2H)-yl)methyl)piperidin-1-yl)-5-methyl-1H-pyrazol-1-yl)-2-azaspiro[3.3]heptan-2-yl)prop-2-en-1-one]",> 5000 nM
8,"C=CC(=O)N1CC2(CC(n3nc(N4CCN(C[C@@H]5COCCO5)CC45CCC5)c(-c4c(Cl)c(C)cc5[nH]ncc45)c3C)C2)C1 (single isomer, unassigned) [Example 169a]",> 5000 nM
9,"C=CC(=O)N1CC2(CCC(n3nc(N4CCN(C(C)=O)CC4)c(-c4c(Cl)ccc5[nH]ncc45)c3C)C2)C1 (single isomer, unassigned) [Example 53a, 1-(6-(3-(4-acetylpiperazin-1-yl)-4-(5-chloro-1H-indazol-4-yl)-5-methyl-1H-pyrazol-1-yl)-2-azaspiro[3.4]octan-2-yl)prop-2-en-1-one]",4900 nM
10,"C=CC(=O)N1CC2(CC(n3nc(N4CCN(C5CCOCC5)CC4(C)C)c(-c4c(Cl)c(C)cc5[nH]ncc45)c3C)C2)C1 (single isomer, unassigned) [Example 134a, 1-(6-(4-(5-chloro-6-methyl-1H-indazol-4-yl)-3-(2,2-dimethyl-4-(tetrahydro-2H-pyran-4-yl)piperazin-1-yl)-5-methyl-1H-pyrazol-1-yl)-2-azaspiro[3.3]heptan-2-yl)prop-2-en-1-one]",> 5000 nM

# Now those with a lower IC50, led by results:
row,IC50,Compound
1,9 nM,"C=CC(=O)N1CC2(CC(n3nc(N4CC[C@@H](CN5CC6OCCN(C)C6C5)CC4(C)C)c(-c4c(Cl)c(Cl)cc5[nH]ncc45)c3C)C2)C1 (single isomer, unassigned) [Example 260b, 1-(6-(4-(5,6-dichloro-1H-indazol-4-yl)-3-((R)-2,2-dimethyl-4-(((4aR*,7aS*)-4-methylhexahydropyrrolo[3,4-b][1,4]oxazin-6(2H)-yl)methyl)piperidin-1-yl)-5-methyl-1H-pyrazol-1-yl)-2-azaspiro[3.3]heptan-2-yl)prop-2-en-1-one]"
2,7 nM,"C=CC(=O)N1CC2(CC(n3nc(N4CCN(C5CCCOC5)C[C@]4(C)CC)c(-c4c(Cl)c(C)cc5[nH]ncc45)c3C)C2)C1 (single isomer, unassigned) [Example 157d]"
3,12 nM,"C=CC(=O)N1CC2(CC(n3nc(N4CC[C@@H](CN5CC6CC6(O)C5)CC4(C)C)c(-c4c(Cl)c(Cl)cc5[nH]ncc45)c3C)C2)C1 (single isomer, unassigned) [Example 257b]"
4,387 nM,"C=CC(=O)N1CC2(CC(n3nc(N4CCN(Cc5cn(C)nn5)C[C@]4(C)CC)c(-c4c(Cl)c(C)cc5[nH]ncc45)c3C)C2)C1 (single isomer, unassigned) [Example 188a]"
5,12 nM,"C=CC(=O)N1CC2(CC(n3nc(N4CCC5(CN(C6COC6)C5)CC45CCC5)c(-c4c(Cl)c(C)cc5[nH]ncc45)c3C)C2)C1 (single isomer, unassigned) [Example 93b, 1-(6-(4-(5-chloro-6-methyl-1H-indazol-4-yl)-5-methyl-3-(2-(oxetan-3-yl)-2,10-diazadispiro[3.1.3^6.3^4]dodecan-10-yl)-1H-pyrazol-1-yl)-2-azaspiro[3.3]heptan-2-yl)prop-2-en-1-one]"
6,10 nM,"C=CC(=O)N1CC2(CC(n3nc(N4CCN(C5COC5)CC45CCCC5)c(-c4c(Cl)c(C)cc5[nH]ncc45)c3C)C2)C1 (single isomer, unassigned) [Example 144b, 1-(6-(4-(5-chloro-6-methyl-1H-indazol-4-yl)-5-methyl-3-(9-(oxetan-3-yl)-6,9-diazaspiro[4.5]decan-6-yl)-1H-pyrazol-1-yl)-2-azaspiro[3.3]heptan-2-yl)prop-2-en-1-one]"
7,8 nM,"C=CC(=O)N1CC2(CC(n3nc(N4CC[C@@H](CN5CC6C5CCN6C5COC5)CC4(C)C)c(-c4c(Cl)c(Cl)cc5[nH]ncc45)c3C)C2)C1 (single isomer, unassigned) [Example 278b, 1-(6-(4-(5,6-dichloro-1H-indazol-4-yl)-3-((R)-2,2-dimethyl-4-(((1S*,5S*)-2-(oxetan-3-yl)-2,6-diazabicyclo[3.2.0]heptan-6-yl)methyl)piperidin-1-yl)-5-methyl-1H-pyrazol-1-yl)-2-azaspiro[3.3]heptan-2-yl)prop-2-en-1-one]"
8,119 nM,"C=CC(=O)N1CC2(CC(n3nc(N4CCC(CN5CC6COCC6C5)CC4(C)C)c(-c4c(Cl)c(Cl)cc5[nH]ncc45)c3C)C2)C1 (single isomer, unassigned) [Example 226a, 1-(6-(4-(5,6-dichloro-1H-indazol-4-yl)-3-(2,2-dimethyl-4-((tetrahydro-1H-furo[3,4-c]pyrrol-5(3H)-yl)methyl)piperidin-1-yl)-5-methyl-1H-pyrazol-1-yl)-2-azaspiro[3.3]heptan-2-yl)prop-2-en-1-one]"
9,10 nM,"C=CC(=O)N1CC2(CC(n3nc(N4CC[C@@H](CN5CC6COCC(C5)O6)CC4(C)C)c(-c4c(Cl)c(Cl)cc5[nH]ncc45)c3C)C2)C1 (single isomer, unassigned) [Example 308b]"
